Source: patent publication US8518953B2, “Aminopyrimidines useful as inhibitors of protein kinases” (Vertex Pharmaceuticals Incorporated, priority 2007, dated 2013)

Columns and labels:
[1] = tested on: human umbilical vein endothelial cells (HUVEC); experiment: In Vitro Model of Angiogenesis Using HUVEC and Skin Fibroblasts; format: cell-based; details: HUVEC cultures
Text: Compounds are screened for the ability to enhance angiogenesis in human umbilical vein endothelial cells (HUVEC). This method, adapted from Nakatsu et al. Microvas. Res. 2003, describes a protocol that recapitulates the major events essential for new vessel growth: budding, cell migration, cell proliferation, lumen formation, branching, and anastomosis. HUVEC are used between P3 and P4. HUVEC are mixed with dextran coated cytodex 3 micro-carriers (Amersham Pharmacia) at a concentration of 400 HUVEC per bead in 1 ml of EGM-2 (2% FBS) medium (Clonetics). Beads with cells are then shaken gently every 20 min for 4 hr at 37° C. and 5% CO2. After incubating, beads with cells are transferred to a T-25 tissue culture flask and left for 12-16 hr in 5 ml of EGM-2 at 37° C. 5% CO2. The following day beads with cells are washed three times with EGM-2 and re-suspended at a concentration of 200 cell-coated beads/ml in 2.5 mg/ml of fibrinogen (Sigma) with 0.15 U/ml of aprotinin (Sigma) at a pH of 7.4. 500 ul of fibrinogen/bead solution is then added to 0.625 U of thrombin (Sigma) in one well of a 24 well tissue culture plate. Fibrinogen/Bead solution is allowed to clot for 5 min at room temperature and then at 37° C. 5% CO2 for 20 min. 1 ml of EGM-2 with 0.15 U/ml of aprotinin is then added to each well and equilibrated with the fibrin clot for 30 min at 37° C. and 5% CO2. Next, media is removed from the well and replaced with 1 ml of fresh medium. 20,000 skin fibroblasts (SF ATCC Detroit 551) are plated on top of the clot and medium is changed every other day. […] Angiogenesis is scored by quantification of images captured on an inverted microscope at 10× and 20× magnification for vessel length, number of vessels and branches per bead using NIH Image J software. […] YFP positive HUVEC are then cultured as described above and quantification of vessel formation is determined by calculating the area under the threshold fluorescence using NIH Image J software. In both cases, enhanced angiogenesis is determined by comparing compound treated cultures with a DMSO control culture at the same time point.

CRMP2 = CRMP2 phosphorylation assay; format: cell-based, rat; details: E16 hippocampal neurons treated for 7 days
Protocol: GSK-3 phosphorylation regulates CRMP2 which is involved in the control of axon outgrowth and branching (Yoshimura et al. 2005 Cell, Kim et al. 2006 Neuron). Phosphorylation of CRMP2 by GSK-3 reduces CRMP2 binding to microtubules and thereby reduces axon elongation and branching. Conversely, inhibition of GSK-3, especially at levels that selectively affect TYR residue autophosphorylation, enhances these phenotypes. Compounds are tested in E16 rat hippocampal or cortical neurons to determine the ability to increase the level of axonal branching. 1 mg/ml stock of PDL is diluted into 100 μg/ml in DI water. The glass coverslips are coated for at least 1 hour at 37° C. prior to doing the dissection. PDL is aspirated and the plates are rinsed with PBS and air-dried in hood. Cortical or hippocampal lobes are combined with 9 mL of Base media (Neurobasal+Pen/Strep) and put on ice. 1 mL of 10× trypsin solution is added and the mixture is swirled gently. The tissue is then digested via incubation in a 37° C. waterbath for 20 minutes. After 20 minutes, 10 μl/ml DNase (100 μL DNase) is added and the mixture is incubated for another 5 minutes. The cells are spun at 1000 rpm for 1 minute. The enzyme solution is then removed without removing any of the brain fragments sitting on the bottom. […] The cells are counted in a hemacytometer and seeded at 50,000 cells/well in a 12 well plate. […]

[2] = concentrations that have been shown to induce β-catenin

Q: What does the source list for Cc1nc(-c2ccccc2Cl)nc(Nc2n[nH]c3ncc(F)cc23)c1C [Compound I-1, N-(2-(2-chlorophenyl)-5,6-dimethylpyrimidin-4-yl)-5-fluoro-1H-pyrazolo[3,4-b]pyridin-3-amine]?
A: vessel and network formation ([1]; 10 nM, 7 days): increase vessel and network formation; cell proliferation [1, 2]: increased cell proliferation was observed; vessel formation [1, 2]: vessel formation was inhibited; Inhibition of GSK-3 phosphorylation of substrate CRMP-2 (CRMP2): correlated with inhibition of GSK-3 pTYR
